From ChEMBL document CHEMBL4265875, “A comprehensive review on Aurora kinase: Small molecule inhibitors and clinical trial studies” (Eur J Med Chem, 2017)
One block for each compound: values may come before it.

What was measured:
HCT-116 [1] = assay: Antitumor activity against human HCT116 cells xenografted in mouse assessed as inhibition of tumor growth at 20 mg/kg; format: functional; settings: read-out: TGI
HCT-116 [2] = assay: Antitumor activity against human HCT116 cells xenografted in mouse assessed as inhibition of tumor growth at 15 mg/kg; format: functional; settings: read-out: TGI
[3] = Half life in tumor of mouse xenografted with human HCT116 cells at 15 to 20 mg/kg; format: ADME, organism-based, Neoplasm
HL-60 = assay: Antitumor activity against human HL60 cells xenografted in rat assessed as inhibition of tumor growth at 25 mg/kg, iv bid; format: functional; settings: HL-60, iv, read-out: TGI
[4] = Growth inhibition of in human myeloma cells; format: functional, cell-based
[5] = Inhibition of Xenopus laevis aurora B (60 to 361 residues)/INCENP
SW48 [6] = assay: Antitumor activity against human SW48 cells xenografted in nude rat assessed as reduction in tumor growth at 45 mg/kg, po administered twice daily for 2 days per week for 3 weeks and measured on day 27 relative to untreated control; format: functional
MCF7 = assay: Antiproliferation activity against human MCF7 cells assessed as inhibition of cell proliferation; format: functional, cell-based
HCT-116 [7] = assay: Antitumor activity against human HCT116 cells xenografted in SCID mouse assessed as reduction in tumor bulk at 15 mg/kg, po bid for 12 days relative to untreated control; format: functional
HCT-116 [8] = assay: Antitumor activity against human HCT116 cells xenografted in SCID mouse assessed as reduction in tumor bulk at 30 mg/kg, po bid for 12 days relative to untreated control; format: functional
CAL-85-1 = assay: Antiproliferation activity against human CAL851 cells assessed as inhibition of cell proliferation; format: functional, cell-based
HCC1806 = assay: Antiproliferation activity against human HCC1806 cells assessed as inhibition of cell proliferation; format: functional, cell-based
HCC1143 = assay: Antiproliferation activity against human HCC1143 cells assessed as inhibition of cell proliferation; format: functional, cell-based
[9] = Plasma concentration in F344/N Jcl-rnu rat xenografted with luciferase expressing human HeLa cells at 32 mg/kg, po BID for 2 days; format: ADME, organism-based
[10] = Plasma concentration in F344/N Jcl-rnu rat xenografted with luciferase expressing human HeLa cells at 16 mg/kg, po BID for 2 days; format: ADME, organism-based
AU565 = assay: Antiproliferation activity against human AU565 cells assessed as inhibition of cell proliferation; format: functional, cell-based
SW48 [11] = assay: Antitumor activity against human SW48 cells xenografted in nude rat assessed as reduction in tumor growth at 45 mg/kg, po administered twice daily for 2 days per week measured on day 10 relative to untreated control; format: functional
SW48 [12] = assay: Antitumor activity against human SW48 cells xenografted in nude rat assessed as reduction in tumor growth at 15 mg/kg, po administered twice daily for 2 days per week measured on day 10 relative to untreated control; format: functional
SW48 [13] = assay: Antitumor activity against human SW48 cells xenografted in nude rat assessed as reduction in tumor growth at 15 mg/kg, po administered twice daily for 2 days per week for 3 weeks and measured on day 27 relative to untreated control; format: functional
PC-3 [14] = assay: Antitumor activity against human PC3 cells xenografted in nude mouse assessed as inhibition of tumor growth at 10 mg/kg, po qd; format: functional; settings: PC-3, po, read-out: TGI
PC-3 [15] = assay: Antitumor activity against human PC3 cells xenografted in nude mouse assessed as inhibition of tumor growth at 30 mg/kg, po qd; format: functional; settings: PC-3, po, read-out: TGI
HCT-116 [16] = assay: Antitumor activity against human HCT116 cells xenografted in mouse assessed as inhibition of tumor growth at 20 mg/kg, po qd for 10 days; format: functional; settings: HCT-116, po, 240 h, read-out: TGI
Aurora kinase B [17] = molecular target: T1, Aurora kinase B (Homo sapiens, UniProt Q96GD4); assay: Inhibition of aurora B in human MDA-MB-231 cells assessed as reduction in enzyme autophosphorylation incubated for 4 hrs by high-content immunofluorescence imaging; format: cell-based
T1 sequence (Q96GD4 whole entry): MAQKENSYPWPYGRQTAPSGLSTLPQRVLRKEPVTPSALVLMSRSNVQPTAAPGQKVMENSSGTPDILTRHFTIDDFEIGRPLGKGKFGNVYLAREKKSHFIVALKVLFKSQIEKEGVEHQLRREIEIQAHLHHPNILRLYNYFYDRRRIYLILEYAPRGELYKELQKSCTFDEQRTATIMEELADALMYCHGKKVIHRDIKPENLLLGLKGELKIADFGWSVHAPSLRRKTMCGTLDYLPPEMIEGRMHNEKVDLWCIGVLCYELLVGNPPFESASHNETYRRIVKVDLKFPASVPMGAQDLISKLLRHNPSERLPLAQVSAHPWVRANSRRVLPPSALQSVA

Aurora kinase B [18] = molecular target: T1, Aurora kinase B; assay: Inhibition of full-length His-tagged recombinant aurora B (unknown origin) expressed in insect cells using biotinylated LRRWSLG substrate by scintillation proximity assay
Aurora kinase B [19] = molecular target: T1, Aurora kinase B; assay: Inhibition of aurora B in human MDA-MB-231 cells assessed as reduction in phosphorylation of histone H3 on Ser10 incubated for 4 hrs by high-content immunofluorescence imaging; format: cell-based
HCT-116 [20] = assay: Antitumor activity against human HCT116 cells xenografted in mouse assessed as inhibition of tumor growth at 15 to 60 mg/kg, po; format: functional
[21] = molecular target: Aurora kinase B/Inner centromere protein (Homo sapiens) (UniProt Q96GD4+Q9NQS7); assay: Inhibition of Aurora B/INCENP (unknown origin) assessed as inhibitor-enzyme complex half life pre-incubated for 1 hr followed by FL-PKAtide substrate and ATP addition; format: protein-complex assay
[22] = molecular target: T2, Aurora kinase B/Inner centromere protein (Homo sapiens, UniProt Q96GD4); assay: Inhibition of Aurora B/INCENP (unknown origin) pre-incubated for 1 hr followed by FL-PKAtide substrate and ATP addition; format: protein-complex assay
T2 sequence (Q96GD4 whole entry): as above
T2 sequence (Q9NQS7 whole entry, further chain): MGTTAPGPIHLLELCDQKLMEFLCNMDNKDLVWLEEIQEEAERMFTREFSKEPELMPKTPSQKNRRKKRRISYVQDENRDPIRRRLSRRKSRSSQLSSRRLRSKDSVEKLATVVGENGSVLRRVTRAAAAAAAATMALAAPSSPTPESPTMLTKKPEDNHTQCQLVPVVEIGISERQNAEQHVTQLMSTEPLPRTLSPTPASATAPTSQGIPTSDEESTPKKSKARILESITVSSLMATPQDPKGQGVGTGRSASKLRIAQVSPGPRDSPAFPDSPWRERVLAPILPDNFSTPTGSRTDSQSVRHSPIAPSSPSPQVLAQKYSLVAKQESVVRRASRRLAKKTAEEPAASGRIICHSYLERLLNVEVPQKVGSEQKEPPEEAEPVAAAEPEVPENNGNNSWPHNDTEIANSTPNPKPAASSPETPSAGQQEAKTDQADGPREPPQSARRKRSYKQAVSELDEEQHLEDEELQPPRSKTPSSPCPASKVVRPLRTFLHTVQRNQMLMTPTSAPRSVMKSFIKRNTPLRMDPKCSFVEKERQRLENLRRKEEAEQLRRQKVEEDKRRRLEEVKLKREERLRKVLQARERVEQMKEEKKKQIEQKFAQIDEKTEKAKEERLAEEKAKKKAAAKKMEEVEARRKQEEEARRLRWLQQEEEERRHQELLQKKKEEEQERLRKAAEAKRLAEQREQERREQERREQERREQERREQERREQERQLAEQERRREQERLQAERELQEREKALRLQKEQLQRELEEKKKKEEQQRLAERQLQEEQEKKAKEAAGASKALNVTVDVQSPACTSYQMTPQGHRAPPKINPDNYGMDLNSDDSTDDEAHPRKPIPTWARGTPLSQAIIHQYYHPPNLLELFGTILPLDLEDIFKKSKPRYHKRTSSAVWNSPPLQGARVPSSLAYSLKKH

[23] = molecular target: T2, Aurora kinase B/Inner centromere protein; assay: Inhibition of Aurora B/INCENP (unknown origin) assessed as affinity constant pre-incubated for 1 hr followed by FL-PKAtide substrate and ATP addition; format: protein-complex assay

- half-life [3]: 2.5 h
SMILES: O=C(Nc1c[nH]nc1-c1nc2ccc(CN3CCOCC3)cc2[nH]1)NC1CC1 [AT-9283]
- inhibition in vivo at 20 mg/kg (HCT-116 [1]): 76%
- inhibition in vivo at 15 mg/kg (HCT-116 [2]): 67%

SMILES: CO[C@@H](C(=O)N1Cc2[nH]nc(NC(=O)c3ccc(N4CCN(C)CC4)cc3)c2C1)c1ccccc1 [DANUSERTIB]
- inhibition in vivo at 25 mg/kg (HL-60): 75%

SMILES: Cc1cc(Nc2cc(N3CCN(C)CC3)nc(/C=C/c3ccccc3)n2)n[nH]1 [ENMD-2076]
- IC50 [4]: 2990 to 7060 nM

- IC50 [5]: 250 nM
SMILES: CCS(=O)(=O)Nc1ccc2c(c1)/C(=C(/Nc1ccc(CN3CCCCC3)cc1)c1ccccc1)C(=O)N2 [HESPERADIN]

SMILES: O=C(O)[C@]1(Cc2cccc(Nc3nccs3)n2)CC[C@@H](Oc2cccc(Cl)c2F)CC1 [MK-5108]
- T/C (SW48 [6]): 32%
- IC50 (MCF7): 520 nM
- T/C (HCT-116 [7]): 10%
- T/C (HCT-116 [8]): 6%
- IC50 (CAL-85-1): 740 nM
- IC50 (HCC1806): 560 nM
- IC50 (HCC1143): 420 nM
- concentration at 48 h [9]: 4.4 µM
- concentration at 48 h [10]: 1.7 µM
- IC50 (AU565): 450 nM
- T/C (SW48 [11]): 7%
- T/C (SW48 [12]): 35%
- T/C (SW48 [13]): 58%

SMILES: O=C(O)c1ccc(Nc2ncc3c(n2)-c2ccc(Cl)cc2C(c2c(F)cccc2F)=NC3)cc1 [MLN-8054]
- inhibition in vivo at 10 mg/kg (PC-3 [14]): 76%
- inhibition in vivo at 30 mg/kg (PC-3 [15]): 84%

- IC50 (Aurora kinase B [17]): 11 nM
- IC50 (Aurora kinase B [18]): 5 nM
- IC50 (Aurora kinase B [19]): 50 nM
SMILES: CC(=O)NCC(=O)N1[C@@H]2CC[C@H]1c1ccc(Nc3ncc(C(F)(F)F)c(NC4CCC4)n3)cc12 [PF-03814735]
- inhibition in vivo at 20 mg/kg (HCT-116 [16]): ≤ 50%

SMILES: CCc1cccc(CC)c1NC(=O)N1Cc2[nH]nc(NC(=O)c3ccc(N4CCN(C)CC4)cc3)c2C1 [PHA-680632]
- TGI (HCT-116 [20]): 70%

- T1/2 [21]: 15.3 h
- IC50 [22]: 15 nM
- Ki [23]: 0.02 nM
SMILES: CCS(=O)(=O)c1cccc(-c2cc(C(=O)NC3CCN(C)CC3)c(C)c3[nH]c4ncc(C)cc4c23)c1 [TAK-901]
